The text below walks through data of PubChem BioAssay AID1845211 (Molecular Pharmacology Branch, DTP, NCI, 2023).

The subject of the assay is NCI-H322M multicellular tumor spheroids, viability (% test/control). The experiment in a line: Anticancer human tumor NCI-H322M cell line growth inhibition.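 On viability, T/C: spheroids exposed to compound for seven days before readout; 100% = DMSO vehicle control wells.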 The settings on record: for viability, T/C: stronger effect = lower value. The essentials: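 Complex spheroids of malignant cells with endothelial cells and mesenchymal stem cells; agents alone or combined, from near clinical Cmax (or 10 microM if unknown) down in half-log steps, 0.25% DMSO final.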

Setting [1] is: curve of first compound, second compound 0.003 µM.
Where [2] appears, read: second compound 0.003 µM, first compound 0.0949 µM.
Where [3] appears, read: second compound 0.003 µM, first compound 0.3 µM.
[4] abbreviates: second compound 0.003 µM, first compound 0.949 µM.
[5] abbreviates: second compound 0.003 µM, first compound 3 µM.
The mark [6] stands for this setting: curve of first compound, second compound 30 pM.
The mark [7] stands for this setting: curve of first compound, second compound 94.9 pM.
Where [8] appears, read: curve of first compound, second compound 0.0003 µM.
Where [9] appears, read: curve of first compound, second compound 0.000949 µM.

Each structure is given as a SMILES string.

In general, IC50 refers to the concentration at which inhibition is half-maximal. By viability, T/C is commonly meant the result in the treated group divided by that in the control group, in per cent. As to `CNCc1ccc(-c2cc(-c3nc(-c4ccc(S(=O)(=O)C(C)C)cc4)cnc3N)on2)cc1` + CC[C@@]1(O)C(=O)OCc2c1cc1n(c2=O)Cc2cc3c(CN(C)C)c(O)ccc3nc2-1, the IC50 was over 3 µM under setting [1]; over 3 µM (curve of first compound, second compound 0.00949 µM); over 3 µM (curve of first compound, second compound 0.03 µM); over 3 µM (curve of first compound, second compound 0.0949 µM); 1.47 µM (curve of first compound, second compound 0.3 µM). In addition, the viability, T/C reads like this: (second compound 0.003 µM, first compound 0.00949 µM) 79.2%; (second compound 0.003 µM, first compound 0.03 µM) 93.3%; under setting [2], 96%; under setting [3], 79.7%; under setting [4], 78%; under setting [5], 85.6%. For the same molecule, the viability, T/C is 95.3% (second compound 0.00949 µM, first compound 0.00949 µM); 87.9% (second compound 0.00949 µM, first compound 0.03 µM); 83.7% (second compound 0.00949 µM, first compound 0.0949 µM); 75.4% (second compound 0.00949 µM, first compound 0.3 µM); 81.3% (second compound 0.00949 µM, first compound 0.949 µM); 85.7% (second compound 0.00949 µM, first compound 3 µM). The viability, T/C is, setting by setting: (second compound 0.03 µM, first compound 0.00949 µM) 88.4%; (second compound 0.03 µM, first compound 0.03 µM) 74.7%; (second compound 0.03 µM, first compound 0.0949 µM) 85.5%; (second compound 0.03 µM, first compound 0.3 µM) 69.1%; (second compound 0.03 µM, first compound 0.949 µM) 86%; (second compound 0.03 µM, first compound 3 µM) 86.6%. Moreover, the viability, T/C is 69.3% (second compound 0.0949 µM, first compound 0.00949 µM); 66% (second compound 0.0949 µM, first compound 0.03 µM); 61.3% (second compound 0.0949 µM, first compound 0.0949 µM); 74.2% (second compound 0.0949 µM, first compound 0.3 µM); 59.7% (second compound 0.0949 µM, first compound 0.949 µM); 69.1% (second compound 0.0949 µM, first compound 3 µM). Also, the viability, T/C (second compound 0.3 µM, first compound 0.00949 µM) was 55.2%; the viability, T/C (second compound 0.3 µM, first compound 0.03 µM) is 56.4%; the viability, T/C (second compound 0.3 µM, first compound 0.0949 µM) was 59.1%; the viability, T/C (second compound 0.3 µM, first compound 0.3 µM) was 54.7%; the viability, T/C (second compound 0.3 µM, first compound 0.949 µM) was 51.7%; the viability, T/C (second compound 0.3 µM, first compound 3 µM) was 46.2%.

Turning to `O=C(c1cc(Cc2n[nH]c(=O)c3ccccc23)ccc1F)N1CCN(C(=O)C2CC2)CC1` + COc1cc2c(cc1O)CCNC21CSC2c3c(OC(C)=O)c(C)c4c(c3C(COC1=O)N1C(O)C3Cc5cc(C)c(OC)c(O)c5C(C21)N3C)OCO4, the half-maximal inhibitory concentration (IC50) under setting [6] is over 30 µM; the IC50 under setting [7] was over 30 µM; the half-maximal inhibitory concentration (IC50) under setting [8] was over 30 µM; the IC50 under setting [9] was 20.8 µM; the half-inhibitory concentration (IC50) under setting [1] was under 0.0949 µM. The viability, T/C is 81.3% (second compound 30 pM, first compound 0.0949 µM); 84.3% (second compound 30 pM, first compound 0.3 µM); 90.6% (second compound 30 pM, first compound 0.949 µM); 79.8% (second compound 30 pM, first compound 3 µM); 85.8% (second compound 30 pM, first compound 9.49 µM); 110% (second compound 30 pM, first compound 30 µM). The viability, T/C is, setting by setting: (second compound 94.9 pM, first compound 0.0949 µM) 90.7%; (second compound 94.9 pM, first compound 0.3 µM) 84.9%; (second compound 94.9 pM, first compound 0.949 µM) 88.5%; (second compound 94.9 pM, first compound 3 µM) 87.5%; (second compound 94.9 pM, first compound 9.49 µM) 79.4%; (second compound 94.9 pM, first compound 30 µM) 98.5%. Also, the viability, T/C is 99.6% (second compound 0.0003 µM, first compound 0.0949 µM); 84.7% (second compound 0.0003 µM, first compound 0.3 µM); 79.9% (second compound 0.0003 µM, first compound 0.949 µM); 83.3% (second compound 0.0003 µM, first compound 3 µM); 79.8% (second compound 0.0003 µM, first compound 9.49 µM); 95.9% (second compound 0.0003 µM, first compound 30 µM). Besides, the viability, T/C is 83.4% (second compound 0.000949 µM, first compound 0.0949 µM); 77.7% (second compound 0.000949 µM, first compound 0.3 µM); 69.5% (second compound 0.000949 µM, first compound 0.949 µM); 72.7% (second compound 0.000949 µM, first compound 3 µM); 67.6% (second compound 0.000949 µM, first compound 9.49 µM); 42.2% (second compound 0.000949 µM, first compound 30 µM). Besides, the viability, T/C was 11.3% under setting [2]; 14.1% under setting [3]; 8.06% under setting [4]; 7.88% under setting [5]; 4.62% (second compound 0.003 µM, first compound 9.49 µM); 1.81% (second compound 0.003 µM, first compound 30 µM).

For `COc1cc2c(cc1O)CCNC21CSC2c3c(OC(C)=O)c(C)c4c(c3C(COC1=O)N1C(O)C3Cc5cc(C)c(OC)c(O)c5C(C21)N3C)OCO4` (stereo not given), the viability, T/C by setting is: (compound 94.9 pM) 90.7% [middle of 10 runs]; (compound 0.0003 µM) 90.7% [middle of 10 runs]; (compound 0.003 µM) 7.2% [middle of 10 runs]. The 50% inhibitory concentration (IC50) (compound alone, run of 12/12/2019) is 1.56 nM [middle of 8 runs].

Turning to `Cn1nnc2c(C(N)=O)ncn2c1=O`, the IC50 (compound alone, run of 12/02/2019) was over 100 µM.

On to `COc1cc(C)[nH]c(=O)c1CN1CCc2c(Cl)cc(C(OC)C3COC3)c(Cl)c2C1=O` (stereo not given) + COc1cc2c(cc1O)CCNC21CSC2c3c(OC(C)=O)c(C)c4c(c3C(COC1=O)N1C(O)C3Cc5cc(C)c(OC)c(O)c5C(C21)N3C)OCO4, for which the IC50 under setting [6] is over 10 µM; the IC50 under setting [7] is over 10 µM; the IC50 under setting [8] was over 10 µM; the IC50 under setting [9] was over 10 µM; the IC50 under setting [1] is under 0.0316 µM. The viability, T/C was 75.3% (second compound 30 pM, first compound 0.0316 µM); 82.3% (second compound 30 pM, first compound 0.1 µM); 80.6% (second compound 30 pM, first compound 0.316 µM); 84% (second compound 30 pM, first compound 1 µM); 84.4% (second compound 30 pM, first compound 3.16 µM); 91.7% (second compound 30 pM, first compound 10 µM). Further, the viability, T/C (second compound 94.9 pM, first compound 0.0316 µM) was 92.6%; the viability, T/C (second compound 94.9 pM, first compound 0.1 µM) was 77.5%; the viability, T/C (second compound 94.9 pM, first compound 0.316 µM) was 83.3%; the viability, T/C (second compound 94.9 pM, first compound 1 µM) is 81%; the viability, T/C (second compound 94.9 pM, first compound 3.16 µM) was 81.4%; the viability, T/C (second compound 94.9 pM, first compound 10 µM) was 84.1%. Further, the viability, T/C (second compound 0.0003 µM, first compound 0.0316 µM) is 78.7%; the viability, T/C (second compound 0.0003 µM, first compound 0.1 µM) is 94.2%; the viability, T/C (second compound 0.0003 µM, first compound 0.316 µM) was 79%; the viability, T/C (second compound 0.0003 µM, first compound 1 µM) was 83.4%; the viability, T/C (second compound 0.0003 µM, first compound 3.16 µM) is 97.6%; the viability, T/C (second compound 0.0003 µM, first compound 10 µM) is 87.2%. For the same molecule, the viability, T/C runs as follows: (second compound 0.000949 µM, first compound 0.0316 µM) 81.8%; (second compound 0.000949 µM, first compound 0.1 µM) 82.2%; (second compound 0.000949 µM, first compound 0.316 µM) 82.8%; (second compound 0.000949 µM, first compound 1 µM) 78.8%; (second compound 0.000949 µM, first compound 3.16 µM) 74.7%; (second compound 0.000949 µM, first compound 10 µM) 79.5%. In addition, the viability, T/C is 6.18% (second compound 0.003 µM, first compound 0.0316 µM); 10.3% (second compound 0.003 µM, first compound 0.1 µM); 6.44% (second compound 0.003 µM, first compound 0.316 µM); 7.13% (second compound 0.003 µM, first compound 1 µM); 4.79% (second compound 0.003 µM, first compound 3.16 µM); 5.29% (second compound 0.003 µM, first compound 10 µM).
